In DBAASP:

Legend:
[1] = tested on: Escherichia coli IFO 3301; assay: ≥ marks a high value that may be exact or a test limit, other limits are often not marked, values filed in µg/mL are converted to µM
[2] = tested on: Bacillus subtilis IFO 3336; assay: as above

- MIC [1]: ≥ 506 µM
- MIC [2]: ≥ 506 µM
Structure (SMILES): NCC(=O)N[C@@H](Cc1cnc[nH]1)C(=O)NCC(=O)N[C@@H](Cc1cnc[nH]1)C(=O)NCC(=O)N[C@@H](Cc1cnc[nH]1)C(=O)NCC(=O)N[C@@H](Cc1cnc[nH]1)C(=O)NCC(=O)N[C@@H](Cc1cnc[nH]1)C(=O)O [GHGHGHGHGH]
